These results are taken from PMC8005217, “Unravelling Regioselectivity of Leuconostoc citreum ABK-1 Alternansucrase by Acceptor Site Engineering” (International Journal of Molecular Sciences, 2021).

What all share (assay): DNS reducing sugar assay (total activity)
Common to all, as to type: biochemical
Holding throughout (conditions): 0–368 mM sucrose, 50 mM sodium citrate pH 4.0, 40 °C, read-out: Km or k

The target of assay [1] is T1, LcALT (truncated Leuconostoc citreum ABK-1 alternansucrase, pETΔ7SH, WT) (Leuconostoc citreum, UniProt A0A2H4A2Q1, W554Y, form not given).
T1 construct: gene asr; pET19b via NcoI/XhoI, purified recombinant; exact borders and tags only in cited earlier work
T1 sequence (A0A2H4A2Q1 entry or part of it W554Y, form open): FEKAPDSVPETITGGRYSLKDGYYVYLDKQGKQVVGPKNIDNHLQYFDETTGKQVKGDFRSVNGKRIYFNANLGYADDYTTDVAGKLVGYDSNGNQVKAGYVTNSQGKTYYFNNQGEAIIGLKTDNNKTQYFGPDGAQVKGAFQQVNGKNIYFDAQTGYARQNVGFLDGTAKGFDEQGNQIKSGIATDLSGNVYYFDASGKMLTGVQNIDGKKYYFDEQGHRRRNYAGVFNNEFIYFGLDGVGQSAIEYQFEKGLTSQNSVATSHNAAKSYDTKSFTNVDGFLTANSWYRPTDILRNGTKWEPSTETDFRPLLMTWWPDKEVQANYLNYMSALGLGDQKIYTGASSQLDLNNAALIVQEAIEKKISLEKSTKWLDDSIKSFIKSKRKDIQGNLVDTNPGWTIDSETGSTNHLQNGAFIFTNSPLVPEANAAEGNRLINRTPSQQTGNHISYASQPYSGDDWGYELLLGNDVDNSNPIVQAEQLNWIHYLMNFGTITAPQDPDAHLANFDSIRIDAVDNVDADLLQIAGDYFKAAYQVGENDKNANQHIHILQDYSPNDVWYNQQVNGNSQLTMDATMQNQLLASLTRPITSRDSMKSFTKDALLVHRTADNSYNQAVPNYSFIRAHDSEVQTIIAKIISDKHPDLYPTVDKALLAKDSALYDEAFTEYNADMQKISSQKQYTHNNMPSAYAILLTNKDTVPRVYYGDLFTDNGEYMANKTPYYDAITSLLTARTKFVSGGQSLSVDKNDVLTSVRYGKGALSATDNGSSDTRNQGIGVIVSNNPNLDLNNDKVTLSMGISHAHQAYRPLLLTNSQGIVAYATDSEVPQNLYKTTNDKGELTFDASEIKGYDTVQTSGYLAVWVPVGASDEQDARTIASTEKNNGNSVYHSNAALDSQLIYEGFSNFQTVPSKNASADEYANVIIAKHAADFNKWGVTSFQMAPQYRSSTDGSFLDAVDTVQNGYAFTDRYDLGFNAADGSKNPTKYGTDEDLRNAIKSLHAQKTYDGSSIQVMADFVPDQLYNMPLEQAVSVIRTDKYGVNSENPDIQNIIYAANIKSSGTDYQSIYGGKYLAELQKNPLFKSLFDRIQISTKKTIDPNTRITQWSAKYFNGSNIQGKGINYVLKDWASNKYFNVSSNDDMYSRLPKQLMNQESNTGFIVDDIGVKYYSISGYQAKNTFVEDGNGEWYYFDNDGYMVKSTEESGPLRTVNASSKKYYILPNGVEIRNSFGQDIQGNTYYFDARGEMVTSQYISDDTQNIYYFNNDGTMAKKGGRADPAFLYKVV
An excerpt:
(§1) DNS reducing sugar assay (total activity) on LcALT (truncated Leuconostoc citreum ABK-1 alternansucrase, pETΔ7SH, WT)

Assay [2] deals with T2, LcALT (truncated Leuconostoc citreum ABK-1 alternansucrase, pETΔ7SH, WT) (Leuconostoc citreum, UniProt A0A2H4A2Q1, W554A, form not given).
T2 construct: gene asr; pET19b via NcoI/XhoI, purified recombinant; exact borders and tags only in cited earlier work
T2 sequence (A0A2H4A2Q1 entry or part of it W554A, form open): as the sequence (A0A2H4A2Q1 entry or part of it W554Y, form open) above, with Y554A counted along it
From the text: as §1

In assay [3] the target is T3, LcALT (truncated Leuconostoc citreum ABK-1 alternansucrase, pETΔ7SH, WT) (Leuconostoc citreum, UniProt A0A2H4A2Q1, W554F, form not given).
T3 construct: gene asr; pET19b via NcoI/XhoI, purified recombinant; exact borders and tags only in cited earlier work
T3 sequence (A0A2H4A2Q1 entry or part of it W554F, form open): as the sequence (A0A2H4A2Q1 entry or part of it W554Y, form open) above, with Y554F counted along it
From the text: as §1

For assay [4], the target named is T4, LcALT (truncated Leuconostoc citreum ABK-1 alternansucrase, pETΔ7SH, WT) (Leuconostoc citreum, UniProt A0A2H4A2Q1, W554S, form not given).
T4 construct: gene asr; pET19b via NcoI/XhoI, purified recombinant; exact borders and tags only in cited earlier work
T4 sequence (A0A2H4A2Q1 entry or part of it W554S, form open): as the sequence (A0A2H4A2Q1 entry or part of it W554Y, form open) above, with Y554S counted along it
From the text: as §1

Assay [5] addresses T5, LcALT (truncated Leuconostoc citreum ABK-1 alternansucrase, pETΔ7SH, WT) (Leuconostoc citreum, UniProt A0A2H4A2Q1, W554L, form not given).
T5 construct: gene asr; pET19b via NcoI/XhoI, purified recombinant; exact borders and tags only in cited earlier work
From the text: as §1

In assay [6] the target is T6, LcALT (truncated Leuconostoc citreum ABK-1 alternansucrase, pETΔ7SH, WT) (Leuconostoc citreum, UniProt A0A2H4A2Q1, W554I, form not given).
T6 construct: gene asr; pET19b via NcoI/XhoI, purified recombinant; exact borders and tags only in cited earlier work
T6 sequence (A0A2H4A2Q1 entry or part of it W554I, form open): as the sequence (A0A2H4A2Q1 entry or part of it W554Y, form open) above, with Y554I counted along it
From the text: as §1

T5 sequence (A0A2H4A2Q1 entry or part of it W554L, form open): as the sequence (A0A2H4A2Q1 entry or part of it W554Y, form open) above, with Y554L counted along it

A word on the Km: it is the concentration of substrate that gives half-maximal velocity. As to `OC[C@H]1O[C@@](CO)(O[C@H]2O[C@H](CO)[C@@H](O)[C@H](O)[C@H]2O)[C@@H](O)[C@@H]1O` [sucrose], the Km in assay [1] was 14.2 ± 2 mM; in assay [2], 43 ± 4.7 mM; in assay [3] it was 16.6 ± 2.1 mM; in assay [4], 63.6 ± 8.3 mM; in assay [5] it was 46.4 ± 6 mM; in assay [6] it was 53.1 ± 4.6 mM.
